“Also recorded” adds a separate entry of the source.
Columns and labels:
STING pathway = assay: Type-I IFN production in THP-1 cells detected with HEK-Blue IFN α/β reporter cells; type: cell-based, human; conditions: 5 μM CDN, 4 h incubation, compared with c-di-GMP
Description: THP-1 cells were seeded at a density of 100000 cells/well in a 96-well cell culture plate and differentiated with 25 nM of PMA for approximately 20 h prior to treatment with CDNs. Cells were transfected with 5 μM of CDNs in a permeabilization buffer containing 5 μg/mL of digitonin, then washed and incubated in RPMI medium with 2% FBS at 37° C. for 4 h. 50 μL of cell culture supernatant per well was transferred to 150 μL of HEK-Blue IFN α/β reporter cells seeded at 50000 cells/well in a 96-well cell culture plate and incubated at 37° C. overnight. The reporter cells were spun down the next day, and 50 μL of cell culture supernatant per well was transferred to a 96-well plate and added with 150 μL of QUANTI-Blue™ SEAP detection medium (InvivoGen). The samples were then incubated at 37° C. for 1 h 20 min before absorption was measured at 640 nm. The absorption signal of each sample was normalized to untreated samples. Two independent assays were performed in duplicate or triplicate. Error bars indicate SD.
To preliminarily determine whether the synthetic c-di-GMP analogues could activate the IFN response in eukaryotic cells, THP-1 cells were treated with 5 μM of c-di-GMP, c-GthGMP and c-di-thGMP.
Detecting type-I IFN production with reporter cells. […] The samples were then incubated at 37° C. for 80 min before absorption was measured at 640 nm with an EnSpire plate reader (PerkinElmer). […]

rocR = target: T1, rocR (Pseudomonas aeruginosa, UniProt Q9HX69); assay: rocR-mediated CDN hydrolysis monitored by HPLC; type: biochemical, P. aeruginosa; conditions: for k2 / k3 / k1 / k2 (cleavage reaction) / time to complete cleavage by rocR: 100 nM rocR, 37° C.; for k2 / k3: Table 3; for k1: enzyme/substrate association; for order of gradually reduced rocR hydrolysis rate: FIG. 10F
T1 construct: made in house; host or cells: Escherichia coli BL21(DE3)
Excerpt: [1a,27] rocR is a PDE that contains an EAL domain and specifically recognizes and cleaves c-di-GMP into the linear dinucleotide pGpG. […] [28a,29]
RocR is reported to follow Michaelis-Menten kinetics. [27c,28a] Scheme 2a was therefore used to analyze the reaction kinetics, where k1 and k−1 describe the enzyme/substrate association and dissociation, respectively, while k2 reflects the cleavage reaction. Equations (10)-(13) were thus used to extract the rate constants. When “asymmetrical” mixed c-di-GMP analogues are treated with rocR, the enzyme may, in principle, recognize and cleave either phosphodiester bonds, producing pN1pN2 and pN2pN1. Assuming the two products result from different binding orientation of the heterodimeric CDNs, Scheme 2b is therefore introduced to model the cleavage reactions, where k1, k−1 and k2 reflect the association/dissociation and cleavage of the heterodimeric CDN in one orientation, respectively, and k3, k−3 and k4 reflect the other. Equations (14)-(19) were used to extract the rate constants.
Equations(10)-(19) d[S]/dt=−k1[E][S]+k−1[ES] (10) d[E]/dt=−k1[E][S]+k−1[ES]+k2[ES] (11) d[P]/dt=k2[ES] (12) d[ES]/dt=k1[E][S]−k−1[ES]−k2[ES] (13) d[S]/dt=−k1[E][S]+k−1[ES1]−k3[E][S]+k−3[ES2] (14) d[P1]/dt=k2[ES1] (15) d[P2]/dt=k4[ES2] (16) d[E]/dt=−(k1+k3)[E][S]+(k−1+k2)[ES1]+[…][ES2]] (17) d[ES1]/dt=k1[E][S]−k−1[ES1]−k2[ES1] (18) d[ES2]/dt=k3[E][S]−k−3[ES2]−k4[ES2] (19)
CDN hydrolysis with rocR. […] of CDN was incubated with 100 nM of rocR in a buffer containing 100 mM Tris-HCI, pH 8, 20 mM KCI, 25 mM MgCl2 at 37° C. Aliquots of the reaction mixture were taken out at designated time points and quenched with 100 mM CaCl2. All aliquots were filtered before subjected to reverse-phase HPLC analysis. The reaction mixture was separated by Sepax Bio C-18 column (250×10 mm, 5 µm particle size) with a gradient of 0.1-15% of 10 mM NH4OAc, pH7 in Me0H in 12 minutes at 25° C. or 50° C. (only for reactions of c-GtzGMP and c-di-tzGMP) on an Agilent 1200 series HPLC system (Agilent Technologies).
Data Analysis and curve fitting. […] The relative concentrations were plotted against time.

DncV = DncV (Vibrio cholerae serotype O1, UniProt Q9KVG7); conditions: pseudo-second order simulation, FL Model 2
Sequence of DncV (Q9KVG7 whole entry): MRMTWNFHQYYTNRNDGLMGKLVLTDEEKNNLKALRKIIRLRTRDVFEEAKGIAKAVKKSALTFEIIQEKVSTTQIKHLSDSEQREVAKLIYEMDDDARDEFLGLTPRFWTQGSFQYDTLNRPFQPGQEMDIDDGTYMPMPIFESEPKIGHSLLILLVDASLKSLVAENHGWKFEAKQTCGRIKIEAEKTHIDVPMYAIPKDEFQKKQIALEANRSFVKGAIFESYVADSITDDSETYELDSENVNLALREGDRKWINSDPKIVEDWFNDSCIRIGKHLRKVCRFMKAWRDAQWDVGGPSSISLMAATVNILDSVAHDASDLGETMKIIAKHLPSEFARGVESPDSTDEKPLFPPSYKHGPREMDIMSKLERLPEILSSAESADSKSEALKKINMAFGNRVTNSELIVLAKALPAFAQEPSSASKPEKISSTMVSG
Description: The bacterial enzyme DncV was thus incubated with either GTP, ^thGTP, ^tzGTP or mixtures thereof under the same conditions as the HPLC-monitored reactions. Aliquots were treated with calf intestinal alkaline phosphatase (CIAP) at designated times, and emission spectra were taken after appropriate dilution.
Unlike integrated chromatographic analyses, which can separately account for all individual species present, the observed fluorescence signal reflects the sum of all emissive species. To facilitate quantitative analyses of fluorescence data, a conversion factor (a) was introduced to the simulation of the fluorescence-monitored reaction kinetics. This factor bridges the integrated fluorescent spectrum and the concentration of a given chromophore at a given set of conditions and can be calculated from the integrated emission spectrum (FLint) of a given chromophore with known concentration ([C]) using Equation (5). […] To compare the fluorescence- and HPLC-monitored reaction kinetics, Equation (6) was used to correlate the recorded fluorescence spectrum with the concentrations of different species in the reaction mixture. As a first attempt, the k values extracted from the HPLC analysis were used to fit the fluorescence data (referred to as FL Model 1). […]

T1 sequence (Q9HX69 whole entry): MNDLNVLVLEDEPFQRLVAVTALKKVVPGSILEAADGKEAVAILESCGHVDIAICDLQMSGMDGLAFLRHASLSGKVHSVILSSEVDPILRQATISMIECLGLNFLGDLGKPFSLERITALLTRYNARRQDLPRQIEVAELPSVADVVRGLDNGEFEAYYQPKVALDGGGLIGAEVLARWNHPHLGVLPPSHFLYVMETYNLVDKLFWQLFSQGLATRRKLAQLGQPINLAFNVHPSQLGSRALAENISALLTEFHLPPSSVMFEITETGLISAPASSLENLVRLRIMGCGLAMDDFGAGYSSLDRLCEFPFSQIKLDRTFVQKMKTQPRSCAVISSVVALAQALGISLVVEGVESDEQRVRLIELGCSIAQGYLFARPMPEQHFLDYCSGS

SMILES | type-I IFN induction (STING pathway) | k2 (rocR) | k3 (rocR) | k1 (rocR) | order of gradually reduced rocR hydrolysis rate (rocR) | products of rocR-mediated cleavage (rocR; mixed CDNs, HPLC) | k2 (cleavage reaction) (rocR) | time to complete cleavage by rocR (rocR) | kapp (apparent kinetics rate constant) (DncV) | cleavage by rocR (rocR; after 40 min of incubation with rocR)
Nc1nc2c([C@@H]3O[C@@H]4COP(=O)(O)O[C@H]5[C@@H](O)[C@H](n6cnc7c(=O)[nH]c(N)nc76)O[C@@H]5COP(=O)(O)O[C@H]4[C@H]3O)scc2c(=O)[nH]1 [c-G^thGMP] | comparable efficiency to cdi-GMP; also recorded: comparable potency to c-di-GMP | 0.033 ± 0.001 s⁻¹ | 5 ± 0.57 s⁻¹ | 21000 ± 1000 M⁻¹ s⁻¹ | c-di-GMP, c-di-^tzGMP, c-G^tzGMP, c-G^thGMP and lastly c-di-^thGMP | a single product | – | – | – | –
Nc1nc2c(ncn2[C@@H]2O[C@@H]3COP(=O)(O)O[C@H]4[C@@H](O)[C@H](n5cnc6c(=O)[nH]c(N)nc65)O[C@@H]4COP(=O)(O)O[C@H]3[C@H]2O)c(=O)[nH]1 [c-di-GMP, reference compound] | – | 1.15 ± 0.21 s⁻¹ | 0.76 ± 0.03 s⁻¹ | 3.96e+06 ± 70000 M⁻¹ s⁻¹ | c-di-GMP, c-di-^tzGMP, c-G^tzGMP, c-G^thGMP and lastly c-di-^thGMP | – | 0.76 ± 0.03 s⁻¹ | ~3 min | – | –
Nc1nc2c([C@@H]3O[C@@H]4COP(=O)(O)O[C@H]5[C@@H](O)[C@H](c6scc7c(=O)[nH]c(N)nc67)O[C@@H]5COP(=O)(O)O[C@H]4[C@H]3O)scc2c(=O)[nH]1 [c-di-^thGMP] | no activity | – | – | – | c-di-GMP, c-di-^tzGMP, c-G^tzGMP, c-G^thGMP and lastly c-di-^thGMP | – | – | – | 0.53 ± 0.05 M⁻¹ s⁻¹ | No cleaved c-di-^thGMP was observed; also recorded: did not produce observable amounts of cleaved c-di-^thGMP products
Nc1nc2c([C@@H]3O[C@@H]4COP(=O)(O)O[C@H]5[C@@H](O)[C@H](c6snc7c(=O)[nH]c(N)nc67)O[C@@H]5COP(=O)(O)O[C@H]4[C@H]3O)snc2c(=O)[nH]1 [c-di-^tzGMP] | – | 0.099 ± 0.07 s⁻¹ | 0.83 ± 0.55 s⁻¹ | 43000 ± 20000 M⁻¹ s⁻¹ | c-di-GMP, c-di-^tzGMP, c-G^tzGMP, c-G^thGMP and lastly c-di-^thGMP | – | 0.83 ± 0.55 s⁻¹ | ≤ 20 min | 1.57 ± 0.15 M⁻¹ s⁻¹ | –
